The target in one data set is T1, CYP19A1 (Homo sapiens, UniProt P11511).
T1 sequence (P11511 1-503): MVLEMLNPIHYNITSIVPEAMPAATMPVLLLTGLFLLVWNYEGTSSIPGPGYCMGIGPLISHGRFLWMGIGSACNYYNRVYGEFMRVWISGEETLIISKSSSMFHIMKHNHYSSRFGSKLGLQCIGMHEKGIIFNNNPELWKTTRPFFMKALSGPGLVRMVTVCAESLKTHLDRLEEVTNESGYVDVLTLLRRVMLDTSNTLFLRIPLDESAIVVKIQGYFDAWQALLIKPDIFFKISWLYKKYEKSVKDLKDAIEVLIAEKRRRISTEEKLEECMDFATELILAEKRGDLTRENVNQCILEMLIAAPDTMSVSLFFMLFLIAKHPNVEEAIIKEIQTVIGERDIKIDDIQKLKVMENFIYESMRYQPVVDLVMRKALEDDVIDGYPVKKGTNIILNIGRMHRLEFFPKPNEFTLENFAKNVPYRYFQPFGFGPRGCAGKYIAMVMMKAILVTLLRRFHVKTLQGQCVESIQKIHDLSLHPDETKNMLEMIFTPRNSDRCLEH
Kind of data set: In cell activity assay for CYP19A1 (dibenzylfluorescein conversion, HEK293 T-Rex cells). It is filed as cell-based. Particulars: Dark; conversion of dibenzylfluorescein (DBF); read-out: IC50 CYP19A1 Dark. The method, then:
Thus, the activity against CYP19A1 was evaluated using a recently developed in-cell fluorometric assay.
REE or DBF was added as described above.

The next data set concerns the target T2, CYP1B1 S269A (Homo sapiens, UniProt Q16678, S269A).
T2 sequence (Q16678 1-543 S269A): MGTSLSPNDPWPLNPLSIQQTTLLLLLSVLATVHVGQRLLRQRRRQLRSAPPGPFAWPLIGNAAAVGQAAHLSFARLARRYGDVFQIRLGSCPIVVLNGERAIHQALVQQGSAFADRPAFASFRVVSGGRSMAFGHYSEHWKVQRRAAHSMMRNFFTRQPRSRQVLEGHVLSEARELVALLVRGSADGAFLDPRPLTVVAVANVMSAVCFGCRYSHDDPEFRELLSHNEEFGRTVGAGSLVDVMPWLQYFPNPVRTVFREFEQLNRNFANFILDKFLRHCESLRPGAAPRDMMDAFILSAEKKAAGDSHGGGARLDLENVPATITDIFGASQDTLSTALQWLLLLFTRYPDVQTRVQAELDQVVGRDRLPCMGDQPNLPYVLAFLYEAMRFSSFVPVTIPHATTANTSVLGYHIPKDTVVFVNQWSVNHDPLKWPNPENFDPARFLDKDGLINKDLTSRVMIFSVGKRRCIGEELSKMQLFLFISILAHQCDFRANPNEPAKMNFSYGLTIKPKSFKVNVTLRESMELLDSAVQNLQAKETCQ
Kind of data set: In cell CYP1B1 activity assay, S269A variant. The settings on record: for logSI S269A: log of the ratio of IC50 values mutant vs WT (Fig. 3c).

Data set [1] can be described thus: Stability of compounds in human liver microsomes. Particulars: for Remaining, % (NCF=60min): human liver microsomes, no co-factor (no NADPH); for CLint scaled / Remaining, % (T=60min) / half-life / microsomal CLint: human, liver microsomes. On the technique in general: Liver microsomes are vesicles of endoplasmic reticulum, rich in cytochrome P450 enzymes.
The target in the next data set is T3, CYP1B1 (Homo sapiens, UniProt Q16678).
T3 sequence (Q16678 1-543): T2 sequence (Q16678 1-543 S269A) with A269S
Kind of data set: In cell activity assay for CYP1B1 (7-ethoxyresorufin conversion, HEK293 T-Rex cells). Particulars: CYP1B1; for % Enzyme Activity: dark.

The next data set concerns the target T4, CYP1A1 (Homo sapiens, UniProt P04798).
T4 sequence (P04798 1-512): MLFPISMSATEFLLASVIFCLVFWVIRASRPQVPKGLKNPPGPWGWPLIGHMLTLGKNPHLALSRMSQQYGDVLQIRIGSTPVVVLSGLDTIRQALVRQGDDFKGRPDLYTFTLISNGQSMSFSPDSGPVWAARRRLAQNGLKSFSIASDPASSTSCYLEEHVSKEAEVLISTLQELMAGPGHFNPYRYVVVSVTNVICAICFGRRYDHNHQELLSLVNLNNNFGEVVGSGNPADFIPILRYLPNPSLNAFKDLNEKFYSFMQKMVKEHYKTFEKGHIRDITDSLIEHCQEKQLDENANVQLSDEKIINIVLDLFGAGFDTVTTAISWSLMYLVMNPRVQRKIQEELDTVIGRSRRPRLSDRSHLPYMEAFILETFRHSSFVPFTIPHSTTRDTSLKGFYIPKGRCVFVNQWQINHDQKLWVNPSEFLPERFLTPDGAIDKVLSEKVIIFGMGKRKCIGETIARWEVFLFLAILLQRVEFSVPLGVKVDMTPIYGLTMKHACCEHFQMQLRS
The data set can be described thus: In cell activity assay for CYP1A1 (7-ethoxyresorufin conversion, HEK293 T-Rex cells). The settings on record: for % Enzyme Activity: CYP1A1, dark.

This note sets out measurements from article PMC9233675, “Ru(II) photocages enable precise control over enzyme activity with red light” (Nature Communications, 2022).

Numbering of substitutions follows the chain as printed. Where “and” joins values, the source holds several entries; their conditions need not be identical. Identical values can stand only once.

The term IC50 denotes the concentration that gives 50% inhibition. Usually CLint scaled stands for a measure of how fast metabolising enzymes remove a compound, apart from limits set by blood flow. Low values mean slow turnover, high ones rapid turnover. A word on the half-life: it is the time in which the quantity being followed falls by half. For orientation: microsomal CLint means a measure of how fast metabolising enzymes remove a compound, apart from limits set by blood flow.

For `COc1ccc(C=Cc2ccncc2)c(OC)c1` [Compound 3], at CYP19A1, the concentration for half-maximal inhibition (IC50) came out at 14.4 µM. In addition, the “logSI S269A” value at CYP1B1 S269A came to 0.8. For the same compound, the “Remaining, % (NCF=60min)” value in data set [1] is given as 92.1%. In data set [1], this compound yielded a CLint scaled of 155 mL/min/kg. In data set [1], the “Remaining, % (T=60min)” value worked out at 0.6%. The compound further yielded a half-life in data set [1] of 8.07 min. Also, the intrinsic metabolic clearance (microsomal CLint) in data set [1] was found to be 172 µL/min/mg. Moreover, the “% Enzyme Activity” value on CYP1B1 (Log Conc 0.39794) is -5.843% and -5.409% and -4.402%; at CYP1B1 (Log Conc 1) it was -2.892% and -0.02892% and -1.938%; at CYP1B1 (Log Conc -0.20412) it was -3.135% and -2.441% and -3.396%; on CYP1B1 (Log Conc -0.80618) it was 0.2661% and -0.4628% and 0.4396%; at CYP1B1 (Log Conc -1.40824), 4.865% and 3.164% and 4.917%; on CYP1B1 (Log Conc -2.0103), 14.3229% and 13.9758% and 14.3403%. In addition, the “% Enzyme Activity” value at CYP1B1 (Log Conc -2.61236) is 26.2625% and 28.9697% and 28.1888%; at CYP1B1 (Log Conc -3.21442), 46.5321% and 40.302% and 39.9202%; on CYP1B1 (Log Conc -3.81648) it was 56.0248% and 55.8165% and 54.8794%; at CYP1B1 (Log Conc -4.41854), 73.8474% and 69.3527% and 65.1356%; on CYP1B1 (Log Conc -5.0206) it was 73.3268% and 74.7498% and 84.3119%; on CYP1B1 (Log Conc -5.62266), 93.7872% and 77.0753% and 77.7868%. Further, the “% Enzyme Activity” value at CYP1B1 (Log Conc -6.22472) was 92.9716% and 93.6311% and 94.2558%; on CYP1B1 (Log Conc -6.82678) it was 109.545% and 110.274% and 80.1816%; at CYP1A1 (Log Conc 0.045757), 84.2841% and 102.432% and 105%; on CYP1A1 (Log Conc 0.522879), 59.4676% and 67.9492% and 76.5686%; on CYP1A1 (Log Conc 1) it was 14.8056% and 20.3883% and 24.2847%; on CYP1A1 (Log Conc 1.47712), 0.5263% and 0.2508% and 0.3665%. Also, the “% Enzyme Activity” value is 103.457% and 112.898% and 125.706% on CYP1A1 (Log Conc -0.43136); 103.209% and 120.806% and 117.825% on CYP1A1 (Log Conc -0.90849); 95.9953% and 108.125% and 129.481% on CYP1A1 (Log Conc -1.38561); 106.428% and 95.389% and 98.1832% on CYP1A1 (Log Conc -1.86273).

In the case of `COc1cc(/C=C/c2ccc(OC)cc2OC)cc(OC)c1` [Compound 1, reference compound], the IC50 at CYP19A1 was more than 30 µM. For the same compound, the “logSI S269A” value on CYP1B1 S269A came to 0.3. Moreover, in data set [1], the “Remaining, % (NCF=60min)” value worked out at 77.1%. Also, the “% Enzyme Activity” value on CYP1A1 (Log Conc 0.045757) was 58.9151% and 62.8214% and 61.5139%; at CYP1A1 (Log Conc 0.522879), 20.9441% and 25.477% and 27.5679%; on CYP1A1 (Log Conc 1), 2.088% and 2.407% and 5.1678%; on CYP1A1 (Log Conc -0.43136), 94.4495% and 93.088% and 89.9544%; at CYP1A1 (Log Conc -0.90849) it was 109.334% and 103.31% and 104.553%; at CYP1A1 (Log Conc -1.38561) it was 108.032% and 102.127% and 103.391%. Besides, the “% Enzyme Activity” value was 103.764% and 105.887% and 103.748% at CYP1A1 (Log Conc -1.86273); 105.601% and 99.1121% and 95.2869% at CYP1A1 (Log Conc -2.33985).

`COc1ccc(/C=C/c2ccncn2)c(OC)c1` [Compound 2]: the figures for the IC50 at CYP19A1 and at CYP1B1 S269A were 10.7 µM and 0.073 µM, respectively. Moreover, the “Ratio IC50 (mutant)/ IC50 (WT), S269A” value at CYP1B1 S269A is recorded as 1. Further, the “logSI S269A” value at CYP1B1 S269A amounted to 0. In addition, the “Remaining, % (NCF=60min)” value in data set [1] stood at 96.5%. The compound also gave an intrinsic clearance (CLint scaled) in data set [1] of 181 mL/min/kg. In addition, the “Remaining, % (T=60min)” value in data set [1] was determined as 0.4%. In addition, in data set [1], the half-life amounted to 6.9 min. This compound showed a microsomal CLint in data set [1] of 201 µL/min/mg. Moreover, the “% Enzyme Activity” value on CYP1B1 (Log Conc 0.39794) was -2.174% and -0.1456% and -1.116%; on CYP1B1 (Log Conc 1), -3.921% and -4.348% and -1.514%; at CYP1B1 (Log Conc -0.20412), 3.833% and 3.484% and 3.455%; on CYP1B1 (Log Conc -0.80618) it was 23.2531% and 22.7484% and 23.8839%; on CYP1B1 (Log Conc -1.40824), 62.2283% and 59.9476% and 62.7038%; at CYP1B1 (Log Conc -2.0103) it was 95.9724% and 93.1289% and 92.7213%. The “% Enzyme Activity” value was 93.2065% and 104.319% and 107.88% at CYP1B1 (Log Conc -2.61236); 101.359% and 108.531% and 103.62% on CYP1B1 (Log Conc -3.21442); 105.357% and 94.6429% on CYP1B1 (Log Conc -3.81648); 97.5755% and 125.129% and 102.858% on CYP1A1 (Log Conc 0.045757); 79.4229% and 93.0687% and 81.8125% on CYP1A1 (Log Conc 0.522879); 15.2494% and 25.1537% and 27.5852% at CYP1A1 (Log Conc 1). The “% Enzyme Activity” value at CYP1A1 (Log Conc -0.43136) was 110.341% and 133.598% and 109.681%; at CYP1A1 (Log Conc -0.90849), 118.484% and 126.806% and 121.555%; on CYP1A1 (Log Conc -1.38561), 117.981% and 113.967% and 112.29%; on CYP1A1 (Log Conc -1.86273) it was 107.668% and 117.038% and 124.375%; on CYP1A1 (Log Conc -2.33985), 98.3615% and 101.034% and 100.604%. For the same compound, the “p IC50(uM)” value at CYP1B1 (negative log of the IC50 in μM) was 1.119. Moreover, the “SI (1B1:1A1)” value at CYP1A1 (ratio of IC50 CYP1A1 to CYP1B1, for complexes 4–6 the IC50 (light) values were used) worked out at 175.
